Target: T1, Glycogen phosphorylase, muscle form (Oryctolagus cuniculus, UniProt P00489)
T1 sequence (P00489 whole entry): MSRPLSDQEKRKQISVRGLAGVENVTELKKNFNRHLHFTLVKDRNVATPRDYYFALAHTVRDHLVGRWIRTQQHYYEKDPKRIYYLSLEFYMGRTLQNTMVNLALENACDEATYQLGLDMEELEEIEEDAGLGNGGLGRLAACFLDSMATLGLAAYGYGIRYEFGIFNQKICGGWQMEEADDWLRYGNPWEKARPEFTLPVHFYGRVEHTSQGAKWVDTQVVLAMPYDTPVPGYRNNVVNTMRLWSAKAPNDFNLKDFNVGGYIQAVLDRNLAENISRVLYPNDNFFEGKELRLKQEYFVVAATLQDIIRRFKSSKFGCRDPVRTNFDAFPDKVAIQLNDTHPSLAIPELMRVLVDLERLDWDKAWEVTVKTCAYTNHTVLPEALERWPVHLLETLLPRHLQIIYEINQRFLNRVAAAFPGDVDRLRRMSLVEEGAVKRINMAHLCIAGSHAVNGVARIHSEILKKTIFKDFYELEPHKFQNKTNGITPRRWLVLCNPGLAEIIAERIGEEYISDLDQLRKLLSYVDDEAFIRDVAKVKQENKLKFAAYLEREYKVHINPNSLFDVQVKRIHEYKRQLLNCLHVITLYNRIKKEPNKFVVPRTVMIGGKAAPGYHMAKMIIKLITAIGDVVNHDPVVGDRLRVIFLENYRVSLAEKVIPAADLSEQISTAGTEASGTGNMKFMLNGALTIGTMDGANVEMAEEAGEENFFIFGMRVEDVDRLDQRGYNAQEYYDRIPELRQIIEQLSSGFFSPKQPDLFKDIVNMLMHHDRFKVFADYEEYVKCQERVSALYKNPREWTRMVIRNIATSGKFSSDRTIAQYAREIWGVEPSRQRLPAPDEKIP
Experiment: Inhibitory activity against rabbit muscle GPa
Assay type: tissue-based, Muscle tissue

SMILES | IC50 [µM]
CC1(C)CC[C@]2(C(=O)OCc3ccccc3)CC[C@]3(C)C(=CC[C@@H]4[C@@]5(C)C[C@@H](O[Si](C)(C)C(C)(C)C)[C@H](O)C(C)(C)[C@@H]5CC[C@]43C)[C@@H]2C1 | 1710
CC1(C)CC[C@]2(C(=O)OCCCCBr)CC[C@]3(C)C(=CC[C@@H]4[C@@]5(C)C[C@@H](O)[C@H](O)C(C)(C)[C@@H]5CC[C@]43C)[C@@H]2C1 | 7
CC1(C)CC[C@]2(C(=O)OCCBr)CC[C@]3(C)C(=CC[C@@H]4[C@@]5(C)C[C@@H](O)[C@H](O)C(C)(C)[C@@H]5CC[C@]43C)[C@@H]2C1 | 50
CC(=O)O[C@@H]1C[C@]2(C)[C@H]3CC=C4[C@@H]5CC(C)(C)CC[C@]5(C(=O)OCc5ccccc5)CC[C@@]4(C)[C@]3(C)CC[C@H]2C(C)(C)[C@H]1O | 80
CC1(C)CC[C@]2(C(=O)OCC(=O)O)CC[C@]3(C)C(=CC[C@@H]4[C@@]5(C)C[C@@H](O)[C@H](O)C(C)(C)[C@@H]5CC[C@]43C)[C@@H]2C1 | 1650
CC1(C)CC[C@]2(C(=O)OCc3ccccc3)CC[C@]3(C)C(=CC[C@@H]4[C@@]5(C)C[C@@H](O[Si](C)(C)C(C)(C)C)[C@@H](O)C(C)(C)[C@@H]5CC[C@]43C)[C@@H]2C1 | 580
COC(=O)[C@]12CCC(C)(C)C[C@H]1C1=CC[C@@H]3[C@@]4(C)C[C@@H](O)[C@H](O)C(C)(C)[C@@H]4CC[C@@]3(C)[C@]1(C)CC2 [MASLINIC ACID METHYL ESTER] | 393
CC1(C)CC[C@]2(C(=O)OCCO)CC[C@]3(C)C(=CC[C@@H]4[C@@]5(C)C[C@@H](O)[C@H](O)C(C)(C)[C@@H]5CC[C@]43C)[C@@H]2C1 | 153
CC1(C)CC[C@]2(C(=O)OCn3cccn3)CC[C@]3(C)C(=CC[C@@H]4[C@@]5(C)C[C@@H](O)[C@H](O)C(C)(C)[C@@H]5CC[C@]43C)[C@@H]2C1 | 66
CC1(C)CC[C@]2(C(=O)OCCCCN3CCCCC3)CC[C@]3(C)C(=CC[C@@H]4[C@@]5(C)C[C@@H](O)[C@H](O)C(C)(C)[C@@H]5CC[C@]43C)[C@@H]2C1 | 580
CC(=O)O[C@@H]1C[C@]2(C)[C@H]3CC=C4[C@@H]5CC(C)(C)CC[C@]5(C(=O)OCc5ccccc5)CC[C@@]4(C)[C@]3(C)CC[C@H]2C(C)(C)[C@@H]1O | 63
CC1(C)CC[C@]2(C(=O)OCc3ccccc3)CC[C@]3(C)C(=CC[C@@H]4[C@@]5(C)C=C(O)C(=O)C(C)(C)[C@@H]5CC[C@]43C)[C@@H]2C1 | 30
CCN(CC)CCOC(=O)[C@]12CCC(C)(C)C[C@H]1C1=CC[C@@H]3[C@@]4(C)C[C@@H](O)[C@H](O)C(C)(C)[C@@H]4CC[C@@]3(C)[C@]1(C)CC2 | 51

Continued, values first:

IC50 [µM] | SMILES
66 | CC1(C)CC[C@]2(C(=O)OCc3ccccc3)CC[C@]3(C)C(=CC[C@@H]4[C@@]5(C)C[C@@H](O)[C@@H](O)C(C)(C)[C@@H]5CC[C@]43C)[C@@H]2C1
29 | CC(=O)O[C@@H]1C[C@]2(C)[C@H]3CC=C4[C@@H]5CC(C)(C)CC[C@]5(C(=O)OCc5ccccc5)CC[C@@]4(C)[C@]3(C)CC[C@H]2C(C)(C)C1=O
43 | CC1(C)CC[C@]2(C(=O)OCCN3CCOCC3)CC[C@]3(C)C(=CC[C@@H]4[C@@]5(C)C[C@@H](O)[C@H](O)C(C)(C)[C@@H]5CC[C@]43C)[C@@H]2C1
29 | CC1(C)CC[C@]2(C(=O)OCc3ccccc3)CC[C@]3(C)C(=CC[C@@H]4[C@@]5(C)C[C@@H](O)C(=O)C(C)(C)[C@@H]5CC[C@]43C)[C@@H]2C1
31 | CC1(C)CC[C@]2(C(=O)OCCN3CCCCC3)CC[C@]3(C)C(=CC[C@@H]4[C@@]5(C)C[C@@H](O)[C@H](O)C(C)(C)[C@@H]5CC[C@]43C)[C@@H]2C1
19 | CCOC(=O)COC(=O)[C@]12CCC(C)(C)C[C@H]1C1=CC[C@@H]3[C@@]4(C)C[C@@H](O)[C@H](O)C(C)(C)[C@@H]4CC[C@@]3(C)[C@]1(C)CC2
121 | CC1(C)CC[C@]2(C(=O)OCCCCN3CCOCC3)CC[C@]3(C)C(=CC[C@@H]4[C@@]5(C)C[C@@H](O)[C@H](O)C(C)(C)[C@@H]5CC[C@]43C)[C@@H]2C1
62 | CCN(CC)CCCCOC(=O)[C@]12CCC(C)(C)C[C@H]1C1=CC[C@@H]3[C@@]4(C)C[C@@H](O)[C@H](O)C(C)(C)[C@@H]4CC[C@@]3(C)[C@]1(C)CC2

Source: ChEMBL document CHEMBL1138121 (Bioorg Med Chem Lett, 2006)
